The text below walks through data of patent US20110039721A1, “METHOD FOR PREDICTION ABOUT CARCINOGENICITY OF SUBSTANCE IN RODENT” (Chemicals Evaluation and Research Institute, priority 2007, published 2011).

SMILES strings stand for the structures.

The conditions of data set [1]: classification of the substance (M+/M−); cited from earlier work.
The test system of data set [2] is mRNA expressed from the genes (A) to (D) in rat liver. In words: Behavior of genes (mRNA expression level, oligo-DNA microarray) in rat liver after 28-day oral administration. The data set is classed as in vivo. As to conditions: mRNA vs vehicle control group; for Behavior of gene caused by administration of chemical substance, Gene No. 4846 / Behavior of gene caused by administration of chemical substance, Gene No. 2026 / Behavior of gene caused by administration of chemical substance, Gene No. 4218 / Behavior of gene caused by administration of chemical substance, Gene No. 6182 / Behavior of gene caused by administration of chemical substance, Gene No. 5600: gene group (A); for Behavior of gene caused by administration of chemical substance, Gene No. 4846: Unigene No. Rn.144554; for Behavior of gene caused by administration of chemical substance, Gene No. 2026 / Behavior of gene caused by administration of chemical substance, Gene No. 4218: Unigene No. Rn.167075; for Behavior of gene caused by administration of chemical substance, Gene No. 6182: Unigene No. Rn.5834; for Behavior of gene caused by administration of chemical substance, Gene No. 5600: Unigene No. Rn.9836; for Behavior of gene caused by administration of chemical substance, Gene No. 1494 / Behavior of gene caused by administration of chemical substance, Gene No. 2045 / Behavior of gene caused by administration of chemical substance, Gene No. 2203: gene group (B); for Behavior of gene caused by administration of chemical substance, Gene No. 1494: Unigene No. Rn.1430; for Behavior of gene caused by administration of chemical substance, Gene No. 2045: Unigene No. Rn.19329; for Behavior of gene caused by administration of chemical substance, Gene No. 2203: Unigene No. Rn.21240; for Behavior of gene caused by administration of chemical substance, Gene No. 533 / Behavior of gene caused by administration of chemical substance, Gene No. 725 / Behavior of gene caused by administration of chemical substance, Gene No. 1163 / Behavior of gene caused by administration of chemical substance, Gene No. 4973 / Behavior of gene caused by administration of chemical substance, Gene No. 4095 / Behavior of gene caused by administration of chemical substance, Gene No. 1334 / Behavior of gene caused by administration of chemical substance, Gene No. 6620 / Behavior of gene caused by administration of chemical substance, Gene No. 6303 / Behavior of gene caused by administration of chemical substance, Gene No. 5878 / Behavior of gene caused by administration of chemical substance, Gene No. 1131 / Behavior of gene caused by administration of chemical substance, Gene No. 1562 / Behavior of gene caused by administration of chemical substance, Gene No. 1741 / Behavior of gene caused by administration of chemical substance, Gene No. 893 / Behavior of gene caused by administration of chemical substance, Gene No. 6026 / Behavior of gene caused by administration of chemical substance, Gene No. 154 / Behavior of gene caused by administration of chemical substance, Gene No. 1993 / Behavior of gene caused by administration of chemical substance, Gene No. 813 / Behavior of gene caused by administration of chemical substance, Gene No. 2494 / Behavior of gene caused by administration of chemical substance, Gene No. 2546 / Behavior of gene caused by administration of chemical substance, Gene No. 3776 / Behavior of gene caused by administration of chemical substance, Gene No. 3929 / Behavior of gene caused by administration of chemical substance, Gene No. 1119 / Behavior of gene caused by administration of chemical substance, Gene No. 6742 / Behavior of gene caused by administration of chemical substance, Gene No. 5634: gene group (C); for Behavior of gene caused by administration of chemical substance, Gene No. 533: Unigene No. Rn.106184; for Behavior of gene caused by administration of chemical substance, Gene No. 725: Unigene No. Rn.108075; for Behavior of gene caused by administration of chemical substance, Gene No. 1163: Unigene No. Rn.11766; for Behavior of gene caused by administration of chemical substance, Gene No. 4973: Unigene No. Rn.118529; for Behavior of gene caused by administration of chemical substance, Gene No. 4095: Unigene No. Rn.119024; for Behavior of gene caused by administration of chemical substance, Gene No. 1334 / Behavior of gene caused by administration of chemical substance, Gene No. 6620: Unigene No. Rn.120914; for Behavior of gene caused by administration of chemical substance, Gene No. 6303: Unigene No. Rn.123063; for Behavior of gene caused by administration of chemical substance, Gene No. 5878: Unigene No. Rn.143213; for Behavior of gene caused by administration of chemical substance, Gene No. 1131: Unigene No. Rn.144946; for Behavior of gene caused by administration of chemical substance, Gene No. 1562: Unigene No. Rn.14744; for Behavior of gene caused by administration of chemical substance, Gene No. 1741: Unigene No. Rn.1647; for Behavior of gene caused by administration of chemical substance, Gene No. 893: Unigene No. Rn.164817; for Behavior of gene caused by administration of chemical substance, Gene No. 6026: Unigene No. Rn.167685; for Behavior of gene caused by administration of chemical substance, Gene No. 154: Unigene No. Rn.185941; for Behavior of gene caused by administration of chemical substance, Gene No. 1993: Unigene No. Rn.18728; for Behavior of gene caused by administration of chemical substance, Gene No. 813: Unigene No. Rn.201760; for Behavior of gene caused by administration of chemical substance, Gene No. 2494: Unigene No. Rn.23969; for Behavior of gene caused by administration of chemical substance, Gene No. 2546: Unigene No. Rn.24561; for Behavior of gene caused by administration of chemical substance, Gene No. 3776: Unigene No. Rn.43232; for Behavior of gene caused by administration of chemical substance, Gene No. 3929: Unigene No. Rn.4620; for Behavior of gene caused by administration of chemical substance, Gene No. 1119: Unigene No. Rn.9757; for Behavior of gene caused by administration of chemical substance, Gene No. 6742: Unigene No. Rn.9779; for Behavior of gene caused by administration of chemical substance, Gene No. 5634: Unigene No. Rn.9862; for Behavior of gene caused by administration of chemical substance, Gene No. 5726: gene group (D), Unigene No. Rn.9939. The method, boiled down:
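Groups of four male F344 SPF rats aged 5 weeks are gavaged once a day for 28 days with test chemical in solvent or with solvent alone at equal volume. Total RNA comes from liver taken on day 28. Fold change of 1.5 or 1/1.5 versus control, directionally consistent, defines significance.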

For another data set, the system named is rodent. As to conditions: in vivo; cited from earlier work.
The test system of another data set is liver. As to conditions: in vivo; cited from earlier work.

For `C=C(C)[C@H]1CC=C(C)CC1` [TS024, D-Limonene], in data set [1], the “Mutagenicity by Ames test” value is “M−”.
With `CCC1(c2ccccc2)C(=O)NC(=O)NC1=O` [TS008, Phenobarbital], the “Mutagenicity by Ames test” value in data set [1] is “M−”. In addition, in data set [2], the “Behavior of gene caused by administration of chemical substance, Gene No. 4846” value is reported as “+”; the “Behavior of gene caused by administration of chemical substance, Gene No. 2026” value is recorded as “−”; the “Behavior of gene caused by administration of chemical substance, Gene No. 4218” value was “−”; the “Behavior of gene caused by administration of chemical substance, Gene No. 6182” value is “−”. In addition, in data set [2], the “Behavior of gene caused by administration of chemical substance, Gene No. 5600” value is given as “−”; the “Behavior of gene caused by administration of chemical substance, Gene No. 1494” value is given as “+”; the “Behavior of gene caused by administration of chemical substance, Gene No. 2045” value is listed as “−”; the “Behavior of gene caused by administration of chemical substance, Gene No. 2203” value was “−”. In data set [2], the “Behavior of gene caused by administration of chemical substance, Gene No. 533” value was “+”; the “Behavior of gene caused by administration of chemical substance, Gene No. 725” value is reported as “+”; the “Behavior of gene caused by administration of chemical substance, Gene No. 1163” value is “−”; the “Behavior of gene caused by administration of chemical substance, Gene No. 4973” value is “+”. For the same molecule, in data set [2], the “Behavior of gene caused by administration of chemical substance, Gene No. 4095” value is “+”; the “Behavior of gene caused by administration of chemical substance, Gene No. 1334” value is given as “+”; the “Behavior of gene caused by administration of chemical substance, Gene No. 6620” value is listed as “+”; the “Behavior of gene caused by administration of chemical substance, Gene No. 6303” value is recorded as “+”. In data set [2], the “Behavior of gene caused by administration of chemical substance, Gene No. 5878” value is reported as “−”; the “Behavior of gene caused by administration of chemical substance, Gene No. 1131” value is on record as “−”; the “Behavior of gene caused by administration of chemical substance, Gene No. 1562” value is “+”; the “Behavior of gene caused by administration of chemical substance, Gene No. 1741” value was “+”. For the same molecule, in data set [2], the “Behavior of gene caused by administration of chemical substance, Gene No. 893” value is recorded as “+”; the “Behavior of gene caused by administration of chemical substance, Gene No. 6026” value is “+”; the “Behavior of gene caused by administration of chemical substance, Gene No. 154” value is reported as “+”; the “Behavior of gene caused by administration of chemical substance, Gene No. 1993” value is on record as “+”. For the same molecule, in data set [2], the “Behavior of gene caused by administration of chemical substance, Gene No. 813” value was “+”; the “Behavior of gene caused by administration of chemical substance, Gene No. 2494” value is “+”; the “Behavior of gene caused by administration of chemical substance, Gene No. 2546” value is reported as “+”; the “Behavior of gene caused by administration of chemical substance, Gene No. 3776” value is given as “−”. In addition, in data set [2], the “Behavior of gene caused by administration of chemical substance, Gene No. 3929” value is given as “+”; the “Behavior of gene caused by administration of chemical substance, Gene No. 1119” value is on record as “+”; the “Behavior of gene caused by administration of chemical substance, Gene No. 6742” value is reported as “+”; the “Behavior of gene caused by administration of chemical substance, Gene No. 5634” value is recorded as “+”. Besides, the “Behavior of gene caused by administration of chemical substance, Gene No. 5726” value in data set [2] is on record as “−”.
Turning to `Cc1cccc(N=Nc2ccc(N(C)C)cc2)c1` [TS076, 3′-Methyl-4-dimethylaminoazobenzene], the Carcinogenicity entry with rodent is “C+”. In addition, in data set [2], the “Behavior of gene caused by administration of chemical substance, Gene No. 4846” value is listed as “+”; the “Behavior of gene caused by administration of chemical substance, Gene No. 2026” value is “+”; the “Behavior of gene caused by administration of chemical substance, Gene No. 4218” value is listed as “+”; the “Behavior of gene caused by administration of chemical substance, Gene No. 6182” value was “+”. In data set [2], the “Behavior of gene caused by administration of chemical substance, Gene No. 5600” value is “+”; the “Behavior of gene caused by administration of chemical substance, Gene No. 1494” value was “+”; the “Behavior of gene caused by administration of chemical substance, Gene No. 2045” value is “+”; the “Behavior of gene caused by administration of chemical substance, Gene No. 2203” value is “−”. For the same molecule, in data set [2], the “Behavior of gene caused by administration of chemical substance, Gene No. 533” value is reported as “+”; the “Behavior of gene caused by administration of chemical substance, Gene No. 725” value was “+”; the “Behavior of gene caused by administration of chemical substance, Gene No. 1163” value is “−”; the “Behavior of gene caused by administration of chemical substance, Gene No. 4973” value was “+”. For the same molecule, in data set [2], the “Behavior of gene caused by administration of chemical substance, Gene No. 4095” value is “+”; the “Behavior of gene caused by administration of chemical substance, Gene No. 1334” value is reported as “−”; the “Behavior of gene caused by administration of chemical substance, Gene No. 6620” value is given as “−”; the “Behavior of gene caused by administration of chemical substance, Gene No. 6303” value was “+”. For the same molecule, in data set [2], the “Behavior of gene caused by administration of chemical substance, Gene No. 5878” value was “−”; the “Behavior of gene caused by administration of chemical substance, Gene No. 1131” value is “−”; the “Behavior of gene caused by administration of chemical substance, Gene No. 1562” value was “+”; the “Behavior of gene caused by administration of chemical substance, Gene No. 1741” value is recorded as “+”. Further, in data set [2], the “Behavior of gene caused by administration of chemical substance, Gene No. 893” value is “−”; the “Behavior of gene caused by administration of chemical substance, Gene No. 6026” value is on record as “−”; the “Behavior of gene caused by administration of chemical substance, Gene No. 154” value is “+”; the “Behavior of gene caused by administration of chemical substance, Gene No. 1993” value is “+”. Besides, in data set [2], the “Behavior of gene caused by administration of chemical substance, Gene No. 813” value was “−”; the “Behavior of gene caused by administration of chemical substance, Gene No. 2494” value is recorded as “−”; the “Behavior of gene caused by administration of chemical substance, Gene No. 2546” value is recorded as “−”; the “Behavior of gene caused by administration of chemical substance, Gene No. 3776” value is on record as “−”. Besides, in data set [2], the “Behavior of gene caused by administration of chemical substance, Gene No. 3929” value was “−”; the “Behavior of gene caused by administration of chemical substance, Gene No. 1119” value is reported as “−”; the “Behavior of gene caused by administration of chemical substance, Gene No. 6742” value is reported as “−”; the “Behavior of gene caused by administration of chemical substance, Gene No. 5634” value is listed as “−”. Also, the “Behavior of gene caused by administration of chemical substance, Gene No. 5726” value in data set [2] was “−”. Moreover, in the data set with liver, the Liver carcinogenicity entry is recorded as “Cr+”.
